# Results from publication PMC5920614 (ACS Central Science, 2018).
# Ends that are not written are not given here.
# Columns and labels:
# [1] = cited from earlier work
# [2] = 31P NMR of peptide/lipid II mixtures; type: binding; settings: dimethyl sulfoxide
sequence,measurement,setting,value
ITSISLCTPGC (also: bicyclic or more (positions not given here)) [nisin A],pyrophosphate 31P peak shift upon nisin binding (in words),"[1]; 31P NMR, dimethyl sulfoxide",the pyrophosphate peaks shift upfield upon nisin binding
same,binding to lipid II (in words),[1],binds to the small molecular weight metabolite lipid II
same,direction of shift of the new 31P NMR resonances (in words),[2]; lipid II mixed with peptide,both new resonances arising in the nisin/lipid II spectra were shifted upfield
same,binding to lipid II by 31P NMR (in words),[2]; two new 31P resonances,both compounds bind to lipid II
